This note sets out measurements from article PMC8708751, “Hit Identification of a Novel Quinazoline Sulfonamide as a Promising EphB3 Inhibitor: Design, Virtual Combinatorial Library, Synthesis, Biological Evaluation, and Docking Simulation Studies” (Pharmaceuticals, 2021).

What is called melting point is the temperature, or range, at which the solid turns liquid. Usually inhibition stands for the share of the control response that was lost under treatment. As usually defined, the IC50 is the concentration at which inhibition is half-maximal.

The target of one data set is T1, EphB3 kinase (Homo sapiens, UniProt P54753).
T1 construct: purchased Reaction Biology Co. (Kinase HotSpot service)
T1 sequence (P54753 34-998): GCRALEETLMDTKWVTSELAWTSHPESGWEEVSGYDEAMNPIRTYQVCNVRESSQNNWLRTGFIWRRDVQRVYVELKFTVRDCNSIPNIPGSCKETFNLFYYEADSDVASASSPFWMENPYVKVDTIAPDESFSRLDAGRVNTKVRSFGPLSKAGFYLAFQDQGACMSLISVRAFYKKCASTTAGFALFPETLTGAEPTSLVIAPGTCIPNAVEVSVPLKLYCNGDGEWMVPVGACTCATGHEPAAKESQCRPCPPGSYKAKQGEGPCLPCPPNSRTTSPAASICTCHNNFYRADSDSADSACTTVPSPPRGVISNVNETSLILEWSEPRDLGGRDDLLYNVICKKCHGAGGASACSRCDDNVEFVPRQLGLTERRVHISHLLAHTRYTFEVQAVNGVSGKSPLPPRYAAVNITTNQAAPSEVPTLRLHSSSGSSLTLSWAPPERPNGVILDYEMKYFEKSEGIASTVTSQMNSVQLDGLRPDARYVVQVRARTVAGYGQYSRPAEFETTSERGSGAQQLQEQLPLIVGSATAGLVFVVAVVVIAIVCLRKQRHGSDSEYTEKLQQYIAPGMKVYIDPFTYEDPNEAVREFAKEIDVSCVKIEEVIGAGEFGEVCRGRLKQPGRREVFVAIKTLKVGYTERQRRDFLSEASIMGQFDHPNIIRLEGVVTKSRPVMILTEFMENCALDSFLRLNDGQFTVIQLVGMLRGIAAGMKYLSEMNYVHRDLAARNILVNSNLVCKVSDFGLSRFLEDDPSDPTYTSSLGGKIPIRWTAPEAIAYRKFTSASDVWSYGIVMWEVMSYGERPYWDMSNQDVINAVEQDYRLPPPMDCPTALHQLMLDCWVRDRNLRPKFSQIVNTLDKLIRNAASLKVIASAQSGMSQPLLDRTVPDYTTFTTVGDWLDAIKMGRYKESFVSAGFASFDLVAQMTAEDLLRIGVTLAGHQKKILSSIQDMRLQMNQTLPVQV
The data set is described as follows: EphB3 kinase inhibition assay (HotSpot). In kind it is biochemical. Here is the method:
The synthesized compounds were subjected to in vitro screening over EphB3 kinase. A single dose of 10 µM concentration of each target compound was used in EphB3 kinase inhibition assay, at 10 µM ATP, applying HotSpot^SM technology.
(§1) The HotSpot assay platform contains specific kinase/substrate pairs along with required cofactors. Base reaction buffer: 20 mM Hepes (pH 7.5), 10 mM MgCl2, 1 mM EGTA, 0.02% Brij35, 0.02 mg/mL BSA, 0.1 mM Na3VO4, 2 mM DTT, 1% DMSO. The tested compounds were dissolved in 100% DMSO to specific concentration. The serial dilution was conducted by Integra Viaflo Assist in DMSO (Sigma-Aldrich, Burlington, MA, USA). The reaction mixture containing the examined compound and 33P-ATP was incubated at room temperature for 2 h, and radioactivity was detected by filter-binding method. Kinase activity data were expressed as the percent remaining kinase activity in test samples compared to vehicle (dimethyl sulfoxide) reactions. IC50 values and curve fits were obtained using Prism (GraphPad Software, San Diego, CA, USA).

For a further data set, the target named is T2, Aurora A (Homo sapiens, UniProt O14965).
T2 construct: purchased Reaction Biology Co. (Kinase HotSpot service)
T2 sequence (O14965 1-403): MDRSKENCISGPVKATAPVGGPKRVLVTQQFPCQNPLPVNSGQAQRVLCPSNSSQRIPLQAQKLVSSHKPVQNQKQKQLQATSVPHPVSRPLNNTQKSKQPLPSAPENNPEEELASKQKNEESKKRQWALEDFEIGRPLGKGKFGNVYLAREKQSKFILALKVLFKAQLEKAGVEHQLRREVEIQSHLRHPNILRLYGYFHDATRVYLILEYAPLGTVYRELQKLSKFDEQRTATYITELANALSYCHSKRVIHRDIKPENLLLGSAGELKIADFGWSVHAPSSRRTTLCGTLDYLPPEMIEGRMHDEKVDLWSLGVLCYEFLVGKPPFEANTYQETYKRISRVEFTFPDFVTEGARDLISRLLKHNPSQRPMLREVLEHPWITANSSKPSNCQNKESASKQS
The data set is described as follows: Kinase panel assay, Aurora A. In kind it is biochemical. The settings on record: read-out: Average % Enzyme Inhibition (Relative to DMSO Controls) at 10 µM. Here is the method:
as §1, with “The screening of the tested compounds was performed using the Kinase HotSpot^SM service from Reaction Biology Co. (http://www.reactionbiology.com, accessed on 25 September 2021). The HotSpot” for “The HotSpot”

The structures appear in SMILES notation. Read-outs that look alike come from different tables or passages of the source.

`NS(=O)(=O)c1ccc(Nc2ncnc3ccc(-c4cccc(O)c4)cc23)cc1` [Compound 4c, 4-((6-(3-Hydroxyphenyl)quinazolin-4-yl)amino)benzenesulfonamide] registered a melting point of 313.2 to 315.1 °C. Also, on EphB3 kinase (EphB3 kinase, 10 µM compound, 10 µM ATP, read-out: Average % Enzyme Inhibition at 10 µM (Relative to DMSO Control)), the inhibition at 10 µM is over 93%. Moreover, at EphB3 kinase (EphB3 kinase, dose dependent assay, read-out: IC50), the IC50 was 1040 nM. Besides, on EphB3 kinase (EphB3 kinase, read-out: EC50 of the curve fit printed in Figure 5 (IC50 per legend)), the IC50 was 1040 nM. Also, the “selectivity for EphB3 over EphB1 isoform” value at EphB3 kinase (from IC50 values, EphB3 over EphB1) is on record as “six”. Also, the inhibition at 10 µM at Aurora A worked out at 67.9 ± 4.93%.
